Measurements from US9243281B2, “Neuroprotective chemicals and methods for identifying and using same” (Board of Regents of The University of Texas System, priority 2013, dated 2016).

The compounds below were run on hippocampal neurogenesis (Dentate Gyrus) (assay: in vivo neurogenesis assay (BrdU+ cells in dentate gyrus)). Conditions: living mice; vehicle (DMSO) 7.3.
Parameters: species or system mice
Excerpt: The screen was simple in concept. With help from chemists in the Department of Biochemistry at UTSWMC, we selected 1,000 druglike chemicals from the 250,000 compounds in our high throughput screening center. The compounds were selected to preserve representative chemical diversity of the entire library. They were further selected to enhance the representation of chiral molecules, and to avoid untoward chemical properties such as reactive moieties. The 1,000 molecules were randomly pooled into groups of ten, and each pool was administered directly into the left ventricle of two adult mice. Intracranial delivery was facilitated by stereotactic positioning of a canula fed directly by an Alzet mini-pump containing the mixture of ten chemicals. The drug mixture was administered over a week-long period at concentrations anticipated to deliver mid-nanomolar levels of the ten test compounds. Daily injections of the thymidine analog, bromodeoxyuridine (BrdU), were coadministered in order to monitor the formation of new hippocampal nerve cells. Following compound administration, animals were sacrificed such that brain tissue could be recovered, sectioned and stained with antibodies to BrdU. […]

Compound	Neurogenesis # BrdU+ Cells (X10E06)/mm3 Dentate Gyrus
CN1CCN2c3ncccc3Cc3ccccc3C2C1 (stereo not shown) [S126, Remeron, reference compound]	8.8 (X10E06)/mm3
O=C1CC2(CCCC2)CC(=O)N1CCCCN1CCN(c2ncccn2)CC1 [S127, Buspar, reference compound]	6.9 (X10E06)/mm3
CN1CCc2c(c3cc(Br)ccc3n2CC(O)COc2ccccc2)C1 (stereo not shown) [S131]	7.3 (X10E06)/mm3
OC(CN1c2ccccc2CCc2ccccc21)Cn1ccc2ccccc21 (stereo not shown) [S132]	11.4 (X10E06)/mm3
OC(CN1c2ccccc2CCc2ccccc21)Cn1c2ccccc2c2ccccc21 (stereo not shown) [S133]	10.1 (X10E06)/mm3
OC(CSc1ccccc1)CN1c2ccccc2CCc2ccccc21 (stereo not shown) [S134]	9.7 (X10E06)/mm3
OC(COc1ccccc1)CN1c2ccccc2CCc2ccccc21 (stereo not shown) [S135]	7.1 (X10E06)/mm3
N#Cc1ccc(N(CC(O)COc2ccccc2)c2ccc(Br)cc2)nc1 (stereo not shown) [S136]	6.5 (X10E06)/mm3
O=c1ccccn1CC(O)Cn1c2ccc(Br)cc2c2cc(Br)ccc21 (stereo not shown) [S137]	12.2 (X10E06)/mm3
N#Cc1ccc2c(c1)c1ccccc1n2CC(O)COc1ccccc1 (stereo not shown) [S138]	10.4 (X10E06)/mm3
NCC(O)CN1c2ccccc2CCc2ccccc21 (stereo not shown) [S140]	11.7 (X10E06)/mm3
CC(C)(C)OC(=O)NCCCCCOc1ccc(S(=O)(=O)CC(O)Cn2c3ccc(Br)cc3c3cc(Br)ccc32)cc1 (stereo not shown) [S141]	11.3 (X10E06)/mm3
CNCC(O)CN1c2ccccc2CCc2ccccc21 (stereo not shown) [S143]	7.3 (X10E06)/mm3
CC(C)NCC(O)CN1c2ccccc2CCc2ccccc21 (stereo not shown) [S144]	9.1 (X10E06)/mm3
CC(C)(C)NCC(O)CN1c2ccccc2CCc2ccccc21 (stereo not shown) [S145]	12.5 (X10E06)/mm3
NC(=O)c1ccc2c(c1)c1cc(Br)ccc1n2CC(O)COc1ccccc1 (stereo not shown) [S146]	14.5 (X10E06)/mm3
OC(COc1ccccn1)Cn1c2ccc(Br)cc2c2cc(Br)ccc21 (stereo not shown) [S147]	13.3 (X10E06)/mm3
CN(C)CC(F)CN1c2ccccc2CCc2ccccc21 (stereo not shown) [S148, reference compound]	11.3 (X10E06)/mm3
CN(C)C(CF)CN1c2ccccc2CCc2ccccc21 (stereo not shown) [S149]	11.6 (X10E06)/mm3
OC(COc1ccccc1)Cn1c2ccccc2c2cc(Br)ccc21 (stereo not shown) [S150]	8.4 (X10E06)/mm3
CNCC(F)CN1c2ccccc2CCc2ccccc21 (stereo not shown) [S152]	13.4 (X10E06)/mm3
O=C(O)c1ccc2c(c1)c1cc(Br)ccc1n2CC(O)COc1ccccc1 (stereo not shown) [S153]	10.7 (X10E06)/mm3
O=S(=O)(CC(O)Cn1c2ccc(Br)cc2c2cc(Br)ccc21)c1ccc(OCCF)cc1 (stereo not shown) [S156]	15.0 (X10E06)/mm3
CC(C)(C)OC(=O)CCOCCOCCOCCOc1cccc(NCC(O)Cn2c3ccc(Br)cc3c3cc(Br)ccc32)c1 (stereo not shown) [S157]	10.2 (X10E06)/mm3
COc1cccc(NCC(O)CN2c3ccccc3CCc3ccccc32)c1 (stereo not shown) [S158]	12.5 (X10E06)/mm3

Compound	Neurogenesis # BrdU+ Cells (X10E06)/mm3 Dentate Gyrus
COc1c(Br)cc(OC)c2c1c1cc(Br)ccc1n2CC(O)CNc1ccccc1 (stereo not shown) [S160]	13.1 (X10E06)/mm3
Cc1cc(Br)cc2c3cc(Br)cc(C)c3n(CC(O)CNc3ccccc3)c12 (stereo not shown) [S161]	11.4 (X10E06)/mm3
CCOC(=O)Cn1c2ccc(Br)cc2c2cc(Br)ccc21 [S164]	7.6 (X10E06)/mm3
COc1c(Br)ccc2c1c1cc(Br)ccc1n2CC(O)CNc1ccccc1 (stereo not shown) [S168]	14.6 (X10E06)/mm3
CC(C)(O)Cn1c2ccc(Br)cc2c2cc(Br)ccc21 [S169]	9.2 (X10E06)/mm3
OC(CN1c2ccccc2CCc2ccccc21)CN1c2ccccc2CCc2ccccc21 [S170]	11.2 (X10E06)/mm3
OCCn1c2ccc(Br)cc2c2cc(Br)ccc21 [S171]	13.1 (X10E06)/mm3
O=C(O)c1cc2c3ccccc3n(CC(O)COc3ccccc3)c2cn1 (stereo not shown) [S172]	14.2 (X10E06)/mm3
O=C(O)c1cc2c3cc(Br)ccc3n(CC(O)COc3ccccc3)c2cn1 (stereo not shown) [S173]	12.8 (X10E06)/mm3
CCOC(=O)c1cc2c3cc(Br)ccc3n(CC(O)COc3ccccc3)c2cn1 (stereo not shown) [S174]	9.3 (X10E06)/mm3
CC(O)(COc1ccccc1)Cn1c2ccc(C#N)cc2c2cc(C#N)ccc21 (stereo not shown) [S177]	13.9 (X10E06)/mm3
OC(COC1CCCCC1)Cn1c2ccc(Br)cc2c2cc(Br)ccc21 (stereo not shown) [S178]	13.8 (X10E06)/mm3
COc1cccc(N(/C=C/Cn2c3ccc(Br)cc3c3cc(Br)ccc32)S(=O)(=O)C(F)(F)F)c1 [S179]	17.3 (X10E06)/mm3
CN(C)C[C@@H](O)CN1c2ccccc2CCc2ccccc21 [S182]	6.8 (X10E06)/mm3
OC(COc1ccccc1)Cn1c2ccncc2c2cc(Br)ccc21 (stereo not shown) [S183]	7.7 (X10E06)/mm3
OC(CNc1cccc2ccccc12)Cn1c2ccc(Cl)cc2c2cc(Cl)ccc21 (stereo not shown) [S184]	6.7 (X10E06)/mm3
OC(CNc1cccc2ccccc12)Cn1c(-c2ccccc2)cc2ccccc21 (stereo not shown) [S185]	12.6 (X10E06)/mm3
OC(COc1ccccc1)Cn1c2ccc(Br)cc2c2cccnc21 (stereo not shown) [S186]	8.1 (X10E06)/mm3
OC(COc1ccccc1)Cn1c2ccc(Br)cc2c2cc(Br)cnc21 (stereo not shown) [S187]	12.6 (X10E06)/mm3
COc1cccc(NCC(O)Cn2c3ccc(Br)cc3c3cc(Br)ccc32)n1 (stereo not shown) [S188]	13.1 (X10E06)/mm3
Cc1cc2c3cc(Br)ccc3n(CC(O)COc3ccccc3)c2cn1 (stereo not shown) [S190]	8.4 (X10E06)/mm3
N#Cc1cc2c3cc(Br)ccc3n(CC(O)COc3ccccc3)c2cn1 (stereo not shown) [S192]	10.5 (X10E06)/mm3
COc1ccc2[nH]cc(CCNC(C)=O)c2c1 [S193]	7.8 (X10E06)/mm3
OC(COc1ccccc1)Cn1c2ccc(Br)cc2c2ncccc21 (stereo not shown) [S194]	8.1 (X10E06)/mm3
[O-][n+]1ccc2c(c1)c1cc(Br)ccc1n2CC(O)COc1ccccc1 (stereo not shown) [S195]	9.0 (X10E06)/mm3

What follows are compounds tested against T1, p70 (NAMPT) (Homo sapiens, UniProt P43490) (assay: binding competition for photo-crosslinking of P7C3-S326 to p70 in H2122 cells). Conditions: 0.3 μM P7C3-S326 plus 5 μM competitor, p70 band intensity, P7C3-S326 alone compared with plus competitor, vehicle 1.0.
T1 construct: endogenous in cells; host or cells: H2122 lung cancer cells
Method: Cultured cells were co-exposed to P7C3-S326 (0.3 uM) and the individual P7C3 variants (5 uM), exposed to UV light, lysed, clicked to a fluorescent dye and run on SDS gels (FIG. 11).
P7C3-S326 was diluted to 0.3 μM in culture medium to treat H2122 cells. After incubation at 37° C. for 2 hours, H2122 cells were irradiated for 15 minutes under 306 nm ultraviolet light in a Stratalinker 2400 (Stratagene). Cells were then harvested by dissolving in 1% SDS lysis buffer 50 mM HEPES, pH 8.0, 2 mM MgCl2, 10 mM KCl, 1% SDS, 50 units/ml of Benzonase (Sigma), supplemented with Sigmafast protease inhibitor (Sigma).
The reaction was incubated at room temperature with constant agitation at 1,000 rpm on a thermomixer (Eppendorf) for 1 hour. Samples were then mixed with SDS sample loading buffer and loaded on an 8% SDS-PAGE gel, separated, and imaged using a Typhoon imager (filter settings: excitation 533 nm, emission 555 nm, and high sensitivity).
H2122 cells were incubated with the P7C3-S326 (0.3 μM) in the absence or presence of P7C3 analogs for 2 hours following by UV crosslinking. […] The samples were run on SDS-PAGE gels scanned using a Typhoon Imager. The p70 band intensity was analyzed and quantified by Image J, and the relative intensity in each assay was normalized to that of the DMSO control.

T1 sequence (P43490 whole entry): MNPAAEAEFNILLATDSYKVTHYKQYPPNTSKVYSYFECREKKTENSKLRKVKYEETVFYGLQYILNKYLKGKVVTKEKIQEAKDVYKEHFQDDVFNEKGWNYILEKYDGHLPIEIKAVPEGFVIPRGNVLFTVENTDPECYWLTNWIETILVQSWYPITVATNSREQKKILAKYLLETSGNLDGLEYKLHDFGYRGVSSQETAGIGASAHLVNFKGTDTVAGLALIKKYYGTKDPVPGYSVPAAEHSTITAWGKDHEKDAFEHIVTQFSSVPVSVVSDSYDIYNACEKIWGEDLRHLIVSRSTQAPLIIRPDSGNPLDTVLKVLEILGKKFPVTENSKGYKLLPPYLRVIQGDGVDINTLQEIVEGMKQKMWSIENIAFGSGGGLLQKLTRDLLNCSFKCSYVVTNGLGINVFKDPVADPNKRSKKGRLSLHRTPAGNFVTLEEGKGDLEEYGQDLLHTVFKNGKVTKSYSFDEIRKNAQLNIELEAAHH

Compound	Binding competition
CN1CCN2c3ncccc3Cc3ccccc3C2C1 (stereo not shown) [S126, Remeron, reference compound]	1.3
O=C1CC2(CCCC2)CC(=O)N1CCCCN1CCN(c2ncccn2)CC1 [S127, Buspar, reference compound]	1.2
CN1CCc2c(c3cc(Br)ccc3n2CC(O)COc2ccccc2)C1 (stereo not shown) [S131]	3.5
OC(CN1c2ccccc2CCc2ccccc21)Cn1ccc2ccccc21 (stereo not shown) [S132]	1.3
OC(CN1c2ccccc2CCc2ccccc21)Cn1c2ccccc2c2ccccc21 (stereo not shown) [S133]	1.2
OC(CSc1ccccc1)CN1c2ccccc2CCc2ccccc21 (stereo not shown) [S134]	1.9
OC(COc1ccccc1)CN1c2ccccc2CCc2ccccc21 (stereo not shown) [S135]	3.4
N#Cc1ccc(N(CC(O)COc2ccccc2)c2ccc(Br)cc2)nc1 (stereo not shown) [S136]	5.7
O=c1ccccn1CC(O)Cn1c2ccc(Br)cc2c2cc(Br)ccc21 (stereo not shown) [S137]	4.5
N#Cc1ccc2c(c1)c1ccccc1n2CC(O)COc1ccccc1 (stereo not shown) [S138]	6.5
NCC(O)CN1c2ccccc2CCc2ccccc21 (stereo not shown) [S140]	1.2
CC(C)(C)OC(=O)NCCCCCOc1ccc(S(=O)(=O)CC(O)Cn2c3ccc(Br)cc3c3cc(Br)ccc32)cc1 (stereo not shown) [S141]	2.7
CNCC(O)CN1c2ccccc2CCc2ccccc21 (stereo not shown) [S143]	1.3
CC(C)NCC(O)CN1c2ccccc2CCc2ccccc21 (stereo not shown) [S144]	1.4
CC(C)(C)NCC(O)CN1c2ccccc2CCc2ccccc21 (stereo not shown) [S145]	2.6
NC(=O)c1ccc2c(c1)c1cc(Br)ccc1n2CC(O)COc1ccccc1 (stereo not shown) [S146]	2.8
OC(COc1ccccn1)Cn1c2ccc(Br)cc2c2cc(Br)ccc21 (stereo not shown) [S147]	3.4
CN(C)CC(F)CN1c2ccccc2CCc2ccccc21 (stereo not shown) [S148, reference compound]	1.3
CN(C)C(CF)CN1c2ccccc2CCc2ccccc21 (stereo not shown) [S149]	1.2
OC(COc1ccccc1)Cn1c2ccccc2c2cc(Br)ccc21 (stereo not shown) [S150]	4.1
CNCC(F)CN1c2ccccc2CCc2ccccc21 (stereo not shown) [S152]	1.6
O=C(O)c1ccc2c(c1)c1cc(Br)ccc1n2CC(O)COc1ccccc1 (stereo not shown) [S153]	1.4
O=S(=O)(CC(O)Cn1c2ccc(Br)cc2c2cc(Br)ccc21)c1ccc(OCCF)cc1 (stereo not shown) [S156]	1.2
CC(C)(C)OC(=O)CCOCCOCCOCCOc1cccc(NCC(O)Cn2c3ccc(Br)cc3c3cc(Br)ccc32)c1 (stereo not shown) [S157]	1.5
COc1cccc(NCC(O)CN2c3ccccc3CCc3ccccc32)c1 (stereo not shown) [S158]	1.3

Compound	Binding competition
COc1c(Br)cc(OC)c2c1c1cc(Br)ccc1n2CC(O)CNc1ccccc1 (stereo not shown) [S160]	4.3
Cc1cc(Br)cc2c3cc(Br)cc(C)c3n(CC(O)CNc3ccccc3)c12 (stereo not shown) [S161]	3.1
CCOC(=O)Cn1c2ccc(Br)cc2c2cc(Br)ccc21 [S164]	1.3
COc1c(Br)ccc2c1c1cc(Br)ccc1n2CC(O)CNc1ccccc1 (stereo not shown) [S168]	3.5
CC(C)(O)Cn1c2ccc(Br)cc2c2cc(Br)ccc21 [S169]	3.0
OC(CN1c2ccccc2CCc2ccccc21)CN1c2ccccc2CCc2ccccc21 [S170]	1.5
OCCn1c2ccc(Br)cc2c2cc(Br)ccc21 [S171]	3.2
O=C(O)c1cc2c3ccccc3n(CC(O)COc3ccccc3)c2cn1 (stereo not shown) [S172]	1.1
O=C(O)c1cc2c3cc(Br)ccc3n(CC(O)COc3ccccc3)c2cn1 (stereo not shown) [S173]	1.0
CCOC(=O)c1cc2c3cc(Br)ccc3n(CC(O)COc3ccccc3)c2cn1 (stereo not shown) [S174]	1.8
CC(O)(COc1ccccc1)Cn1c2ccc(C#N)cc2c2cc(C#N)ccc21 (stereo not shown) [S177]	4.3
OC(COC1CCCCC1)Cn1c2ccc(Br)cc2c2cc(Br)ccc21 (stereo not shown) [S178]	1.7
COc1cccc(N(/C=C/Cn2c3ccc(Br)cc3c3cc(Br)ccc32)S(=O)(=O)C(F)(F)F)c1 [S179]	0.9
CN(C)C[C@@H](O)CN1c2ccccc2CCc2ccccc21 [S182]	1.1
OC(COc1ccccc1)Cn1c2ccncc2c2cc(Br)ccc21 (stereo not shown) [S183]	4.0
OC(CNc1cccc2ccccc12)Cn1c2ccc(Cl)cc2c2cc(Cl)ccc21 (stereo not shown) [S184]	2.5
OC(CNc1cccc2ccccc12)Cn1c(-c2ccccc2)cc2ccccc21 (stereo not shown) [S185]	1.5
OC(COc1ccccc1)Cn1c2ccc(Br)cc2c2cccnc21 (stereo not shown) [S186]	3.4
OC(COc1ccccc1)Cn1c2ccc(Br)cc2c2cc(Br)cnc21 (stereo not shown) [S187]	2.9
COc1cccc(NCC(O)Cn2c3ccc(Br)cc3c3cc(Br)ccc32)n1 (stereo not shown) [S188]	3.1
Cc1cc2c3cc(Br)ccc3n(CC(O)COc3ccccc3)c2cn1 (stereo not shown) [S190]	4.1
N#Cc1cc2c3cc(Br)ccc3n(CC(O)COc3ccccc3)c2cn1 (stereo not shown) [S192]	4.2
COc1ccc2[nH]cc(CCNC(C)=O)c2c1 [S193]	1.1
OC(COc1ccccc1)Cn1c2ccc(Br)cc2c2ncccc21 (stereo not shown) [S194]	5.1
[O-][n+]1ccc2c(c1)c1cc(Br)ccc1n2CC(O)COc1ccccc1 (stereo not shown) [S195]	1.1
